The record followed here is a melting point compilation (Tetko et al.; mined from patent text by program, amines drawn as free bases though some values may be those of a salt).

The structures appear in SMILES notation.

For orientation: melting point means the temperature of the solid-liquid transition.

Compound `CCCOc1ccc(S(C)(=O)=O)cc1-c1nc2c(CC)n(CC3CC3)nc2c(=O)[nH]1` registered a melting point of 233 to 234 °C.
The figure for `CCc1cc(C#N)ccc1Nc1c(N[C@H](C)C(C)(C)C)c(=O)c1=O` is 235 to 237 °C; for `CCc1cc(Oc2cncc3sc(C(N)=O)cc23)ccc1Cl` it is 185 to 187 °C; for `Fc1ccccc1-c1ncn(CCCCN2CCOCC2)c1-c1ccncc1` it is 103 to 104 °C.
Then `CN(Cc1cccc2c1CN(C1CCC(=O)NC1=O)C2=O)C(=O)NC1CCCCC1` (configuration not stated), with 219 to 221 °C; and `CC(=O)NS(=O)(=O)c1ccc2ccc(Oc3c(Cl)cc(C(F)(F)F)cc3Cl)cc2c1`, with 137 °C.
Then `CCCCC(=O)N(Cc1ccc2c(c1)c1ccccc1n2CCc1nnn[nH]1)C(C(=O)O)C(C)C` (configuration not stated), with 111 to 112 °C; and `O=C1CC(c2ccccc2)C(=O)N1c1cc(Cc2n[nH]c(=O)c3ccccc23)ccc1F` (configuration not stated), with 114 to 120 °C.
In the case of `COc1ccc(CNc2cc3c(Nc4ccc(F)c(Br)c4)ncnc3cn2)cc1`, the melting point was 181 to 184 °C.
Then `CCOC(=O)c1cc2c3ccccc3n(C)c2s1`, with 99 to 100 °C; and `COc1ccc(C2=NN(c3ccc(Cl)cc3)C(=O)[C@H]3CC=CC[C@@H]23)cc1OC` (relative stereo), with 140 to 141 °C; and `CC(=O)NCc1ccc(CN2CCN(c3ncc(Br)s3)CC2)cc1`, with 160 to 163 °C.
The figure for `COc1cc(C(=O)N2Cc3cccn3Cc3ccccc32)ccc1-c1ccccc1C(F)(F)F` is 146 to 148 °C; for `Nc1ccc(-c2nc3c(O)cccc3c(=O)[nH]2)cc1` it is > 230 °C; for `COc1c(Cl)cc(CNc2ccccc2[N+](=O)[O-])cc1Cl` it is 128 °C.
Then `Oc1ccc2ccc(Oc3c(Cl)cc(C(F)(F)F)cc3Cl)cc2c1`, with 98 °C; and `CC(C)(c1ccc([N+](=O)[O-])cc1)c1ccc([N+](=O)[O-])cc1`, with 135 to 137 °C.
In the case of `CC(=O)N1CCN(c2ccc(Nc3nccc(-c4sc(-c5cccnc5)nc4C)n3)cc2)CC1`, the melting point was in the range of 123 to 125 °C.
In turn, `CC1(C)COc2ccc(C[C@H]3NC(=O)O[C@H]3c3cccc(Cl)c3)cc21` (racemic) gave a melting point of 183 to 184 °C.
Then `Cc1c(-c2ccccc2)oc2c(S(=O)(=O)Cl)cccc2c1=O`, with 165 to 170 °C; and `O=C(O)c1cnncc1C(F)(F)F`, with 150 to 151 °C; and `Cc1c(C)c2c(c(C)c1NC(=O)CC(C)(C)C)C(c1cccc(C3OCCO3)c1)CO2` (configuration not stated), with 168 to 169 °C.
For `CCCCCC(CC(=O)Nc1cc(CCC(=O)O)ccc1C(C)(C)C)c1c(OC)cccc1OC` (configuration not stated), the melting point lay within 52 to 53 °C.
The figure for `O=C(C=Cc1cccc(Br)c1)c1ccc(OC2CCCCO2)cc1` (configuration not stated) is 166 to 168 °C; for `NC(=O)Cc1ccc2c(c1)C(=O)Cc1ccccc1S2` it is 171 to 172 °C.
The figure for `C#CC1CCN(C(=O)c2ccccc2)CC1` is 101 to 103 °C.
The figure for `CCOC(=O)Nc1ccc(N2CCN([C@H](C)[C@](O)(Cn3cncn3)c3ccc(F)cc3F)CC2)cc1` is 90 to 92 °C; for `O=S(=O)(N=Cc1ccc(Cl)cc1)c1ccc(Cl)cc1` it is 128 °C; for `CC(=O)Nc1c(C(=O)c2ccccc2)[nH]c2cc(N)ccc12` it is 219 to 221 °C.
As for `COc1ccc(-n2nc(C(C)C)cc2-c2ccc(OCCNS(C)(=O)=O)cc2)cn1`, the melting point fell in the range of 96 to 97 °C.
Then `CCC(CC(=O)OC)Sc1c(C(N)=O)sc2ccc(OC)cc12` (configuration not stated), with 134 to 136 °C; and `O=C(c1ccc(Cl)cc1)c1c(N2C(=O)c3ccccc3C2=O)sc(-c2ccccc2)c1CN1CCCCC1`, with 187 to 189 °C; and `Cc1cc(OCCCCl)c(C)c(C)c1OCCCCl`, with 143 °C.
Take `Cc1ccc(Nc2nc(C)c(-c3nc4ccccc4c(=O)n3-c3ccc(Cl)cc3)s2)cc1`: the melting point is > 275 °C.
With `Fc1ccc(C(CCCN2CCC(c3n[nH]c4ccccc34)CC2)c2ccc(F)cc2)cc1`, the melting point is 154 to 156 °C.
In turn, `CC1CCC2C3CC(=O)C4=CC(=O)CCC4(C)C3CCC12C` (configuration not stated) registered a melting point of 94 to 95 °C.
`Fc1ccc(Nc2c3ccccc3nc3ccccc23)cc1` came in with a melting point of 184 to 196 °C.
In turn, `CCCCCCCCCCCCCCCCCCCCSCCCO` came in with a melting point of 58 to 60 °C.
Then `O[C@H]1c2ccc(OCc3ccccc3)cc2OC[C@H]1Oc1cccnc1` (relative stereo), with 73 to 75 °C; and `CC(C)(C)c1ccc2c(c1)[C@H]1Cc3ccccc3[C@@]1(C)N2` (relative stereo), with 82 to 84 °C; and `Cc1cc(Oc2ccc(Cc3ccccc3)cc2)cc(C)c1N`, with 61 to 63 °C.
The compound `Cc1ccc(NC(=O)Oc2ccc3c(c2)N(Cc2ccccc2)CCC3)cc1` registered a melting point of 98 °C.
The compound `CSc1nc(=O)n(CC(=O)O)cc1F` had a melting point of 244 to 245 °C.
As to `CCOC(=O)C1CCNCC1c1nc2cc(-c3ccc(OC)cc3)nnc2c2ccccc12` (configuration not stated), the melting point lay within 160 to 161 °C.
Compound `CCCC12CCC(=O)C=C1c1c(cc(OCC3=NCCN3)c(Cl)c1Cl)C2` (configuration not stated) showed a melting point of 152 to 154 °C.
`CC(C)(Cc1ccccc1)C(NC(=O)c1ccc(Cl)cc1)Nc1c(Nc2cncc(C(F)(F)F)c2)c(=O)c1=O` (configuration not stated): the melting point was in the range of 194 to 195 °C.
On to `O=S(=O)(Nc1ccc(N2CCN3CCC2CC3)cc1)c1ccccc1`, for which the melting point amounted to 267 °C.
Then `O=C1CCC(N2Cc3c(OCc4ccc(CN5CCOCC5)cc4)cccc3C2=O)C(=O)N1` (configuration not stated), with 206 to 208 °C.
Then `CCCCCCCCCCCCCCCCCC(=O)NCCCSc1ccncc1`, with 88 to 89 °C.
For `CCS(=O)(=O)CCOc1cc(CCCOc2nn(Cc3ccccc3)cc2CC(=O)O)n(Cc2ccc(Cl)cc2Cl)n1`, the melting point fell in the range of 100 to 101 °C.
Consider `COc1ccc(F)cc1C(C)(C)CC(O)(C(=O)Nc1ccccc1)C(F)(F)F` (configuration not stated), for which the melting point lay within 83 to 85 °C.
`Cc1c(C)c2c(c(C)c1O)C(CO)C(C)(C)O2` (configuration not stated) came in with a melting point of 89 to 90 °C.
Then `CC(C)N(CCCC1CCN(CCNC(=O)N2c3cc(Cl)ccc3C(=O)Nc3cccnc32)CC1)C(C)C`, with 175 to 176 °C; and `CC1C(=O)N(c2cc(Cl)cc(Cl)c2)CS1=O` (configuration not stated), with 146 to 149 °C.
The figure for `CC(=O)N1CCC2(CC1)C(=O)N(CC(=O)Nc1c(C(C)C)cccc1C(C)C)C(=O)N2c1ccc(C)cc1` is 136 to 138 °C; for `N#CC[C@H](NC(=O)c1ccc2ccccc2c1)C(=O)O` it is 95 to 100 °C.
Then `CC(C)(C)OC(=O)NN1CCNC1=O`, with 186 to 188 °C; and `Clc1ccc(-c2csc(NCc3cnc(NCc4ccccc4)s3)n2)cc1`, with 105 to 106 °C.
Take `CC(C)(C)CC(=O)NCc1cccs1`: the melting point lay within 83 to 84 °C.
In the case of `NP(N)(=O)OCC(Cl)(Cl)Cl`, the melting point was in the range of 86 to 87 °C.
In the case of `O=C1OC(=O)c2cc(OCCCOc3ccccc3)ccc21`, the melting point was 96 to 98 °C.
With `Nc1ccc(C(=O)C[N+](=O)[O-])c(Cl)c1`, the melting point lay within 131 to 133 °C.
